Experiments:
[1] = biological target: AmpC β-lactamase; details: cited from earlier work
[2] = test system: LHR; details: cited from earlier work
[3] = test system: TSHR; details: cited from earlier work
[4] = test system: TSHR; details: sera from 4 Graves' disease patients, cAMP accumulation; cited from earlier work
[5] = test system: thyroperoxidase mRNA expression; details: human thyrocytes, 10 μM and 30 μM; cited from earlier work
[6] = Aqueous solubility; assay type: physicochemical
[7] = test system: Cyp; assay: Cyp inhibition; assay type: in vitro ADME
[8] = test system: Caco-2; assay: Caco-2 permeability; assay type: in vitro ADME
[9] = test system: α-glucosidase; details: cited from earlier work
[10] = test system: α-galactosidase; details: cited from earlier work
[11] = biological target: glucocerebrosidase (GC); details: native GC; cited from earlier work
[12] = Microsomal stability; assay type: in vitro ADME; details: rat
[13] = test system: β-N-acetylflucosaminidase; details: cited from earlier work
[14] = Plasma protein binding; assay type: in vitro ADME; details: low free fraction
[15] = test system: N370S mutant GC; details: N370S mutant GC fibroblasts, 40 μM; cited from earlier work
[16] = test system: Thyroid stimulating hormone receptor (TSHR); details: AID 926; cited from earlier work
[17] = test system: S. mansoni adult worms; details: 100 μM carboxy-PTIO (NO scavenger); cited from earlier work
[18] = test system: S. mansoni TGR; details: single 10 μM exposure to 15 nM S. mansoni TGR, NADPH; cited from earlier work

## CC(C)[C@H](NC(=O)OC(C)(C)C)c1nnc(S(=O)(=O)Cc2c(F)cccc2Cl)o1 [NCGC00067197, (S)-tert-butyl 1-(5-(2-chloro-6-fluorobenzylsulfonyl)-1,3,4-oxadiazol-2-yl)-2-methylpropylcarbamate]
[1]
  IC50: 16 nM

## O=C(O)c1ccc2c(c1)C(=O)N([C@H](Cc1cccc3ccccc13)C(=O)O)C2=O [NCGC00161790, (R)-2-(1-carboxy-2-(naphthalen-1-yl)ethyl)-1,3-dioxoisoindoline-5-carboxylic acid]
[1]
  Ki: 5000 nM

## COc1cccc(-c2nc(SC)nc3sc(C(=O)NC(C)(C)C)c(N)c23)c1 [Org 41841, reference compound]
[2]
  LHR agonism: highly potent
[3]; lower potency relative to LHR
  response at TSHR: agonistic response

## COC/C=C/c1ccc(-c2nc(SC)nc3sc(C(=O)NC(C)(C)C)c(N)c23)cc1 [NCGC00166332]
[4]
  blocking the activity of thyroid-stimulating antibodies: capable of blocking
[3]
  TSHR antagonism: antagonist
[5]
  blocking thyroperoxidase mRNA expression: capable of blocking

## Cc1cc(N2CCOCC2)nc2ccc(NC(=O)C3CCCCC3)cc12 [NCGC00092410, N-(4-methyl-2-morpholinoquinolin-6-yl)cyclohexanecarboxamide]
[6]
  aqueous solubility: acceptable
[7]
  Cyp inhibition: no relevant Cyp inhibition
[8]
  Caco-2 permeability: acceptable
[9]
  inhibitory capacity for α-glucosidase: no inhibitory capacity
[10]
  inhibitory capacity for α-galactosidase: no inhibitory capacity
[11]
  Ki: 21 nM
[12]
  microsomal stability: acceptable
[13]
  inhibitory capacity for β-N-acetylflucosaminidase: no inhibitory capacity
[14]
  plasma protein binding: high level
[15]
  co-localization of mutant GC to the lysosome: co-localization of this mutant form of GC to the lysosome

## COc1ccc(C2Nc3ccccc3C(=O)N2Cc2ccccc2)cc1COc1ccc(NC(C)=O)cc1 (centres unmarked) [NCGC00161876, N-(4-(5-(3-benzyl-4-oxo-1,2,3,4-tetrahydroquinazolin-2-yl)-2-methoxybenzyloxy)phenyl)acetamide]
[16]
  TSHR agonism in qHTS: agonists

## N#Cc1c(-c2ccccc2)no[n+]1[O-] [furoxan, 3-cyano-4-phenyl-1,2,5-oxadiazole 2-oxide]
[17]
  worm killing potential in the presence of carboxy-PTIO: largely mitigated
[18]
  NO release: appreciable amount of NO

Reference: article PMC2989597 (Current topics in medicinal chemistry, 2009)
